# Source: ChEMBL document CHEMBL1201862, “PubChem BioAssay data set” (2004)
#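 48-hour exposure; five concentrations; linearly interpolated endpoints. GI50 is the concentration that inhibits growth by half.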 The source made the active and inactive calls. Rule as the data show it: active = GI50 up to about 1.1 µM and inactive = higher.
# How the values were obtained:
# Assay in all cases: NCI anticancer screen, dose series, 48 h
# [1] = system: MDA-MB-435
# [2] = system: NCI-H460
# [3] = system: UO-31
# [4] = system: HCC 2998
# [5] = system: NCI-H23
# [6] = system: COLO 205
# [7] = system: OVCAR-4
# [8] = system: OVCAR-3
# [9] = system: HL-60
# [10] = system: HT-29
# [11] = system: NCI-H522
# [12] = system: Malme-3M
# [13] = system: RXF 393
# [14] = system: OVCAR-5
# [15] = system: EKVX
# [16] = system: MDA-MB-231
# [17] = system: SK-MEL-2
# [18] = system: SN12C
# [19] = system: SK-MEL-28
# [20] = system: HOP-92
# [21] = system: SK-OV-3
# [22] = system: M14
# [23] = system: NCI-H226
# [24] = system: SF-268
# [25] = system: 786-0
# [26] = system: MDA-N
# [27] = system: CAKI-1
# [28] = system: MCF7
# [29] = system: T47D
# [30] = system: U-251
# [31] = system: TK-10
# [32] = system: A549
# [33] = system: PC-3
# [34] = system: SW-620
# [35] = system: UACC-62
# [36] = system: OVCAR-8
# [37] = system: K562
# [38] = system: DU-145
# [39] = system: SF-295
# [40] = system: CCRF-CEM
# [41] = system: LOX IMVI
# [42] = system: NCI/ADR-RES
# [43] = system: SF-539
# [44] = system: MOLT-4
# [45] = system: SK-MEL-5
# [46] = system: BT-549
# [47] = system: ACHN
# [48] = system: Hs-578T
# [49] = system: HCT-116
# [50] = system: SR
# [51] = system: SNB-19
# [52] = system: HCT-15
# [53] = system: UACC-257
# [54] = system: A498
# [55] = system: KM12
# [56] = system: SNB-75
# [57] = system: HOP-62
# [58] = system: IGROV-1
# [59] = system: RPMI-8226
structure (smiles),measurement,setting,value
O=C(c1cccs1)N(C(=S)OC12CC3CC(CC(C3)C1)C2)c1ccccc1,GI50,[1],29.8 µM (inactive)
same,GI50,[2],33.3 µM (inactive)
same,GI50,[3],18.7 µM (inactive)
same,GI50,[4],32.6 µM (inactive)
same,GI50,[5],30.2 µM (inactive)
same,GI50,[6],17.7 µM (inactive)
same,GI50,[7],35 µM (inactive)
same,GI50,[8],34.6 µM (inactive)
same,GI50,[9],25 µM (inactive)
same,GI50,[10],31.8 µM (inactive)
same,GI50,[11],17.2 µM (inactive)
same,GI50,[12],43.2 µM (inactive)
same,GI50,[13],62.2 µM (inactive)
same,GI50,[14],29.4 µM (inactive)
same,GI50,[15],17.8 µM (inactive)
same,GI50,[16],30 µM (inactive)
same,GI50,[17],18.2 µM (inactive)
same,GI50,[18],27 µM (inactive)
same,GI50,[19],54.8 µM (inactive)
same,GI50,[20],24.8 µM (inactive)
same,GI50,[21],28.4 µM (inactive)
same,GI50,[22],19.2 µM (inactive)
same,GI50,[23],33.3 µM (inactive)
same,GI50,[24],37.6 µM (inactive)
same,GI50,[25],35.4 µM (inactive)
same,GI50,[26],31.4 µM (inactive)
same,GI50,[27],28.3 µM (inactive)
same,GI50,[28],30.7 µM (inactive)
same,GI50,[29],76.7 µM (inactive)
same,GI50,[30],29.1 µM (inactive)
same,GI50,[31],44 µM (inactive)
same,GI50,[32],32.8 µM (inactive)
same,GI50,[33],22.8 µM (inactive)
same,GI50,[34],40.7 µM (inactive)
same,GI50,[35],25.6 µM (inactive)
same,GI50,[36],31.8 µM (inactive)
same,GI50,[37],26.8 µM (inactive)
same,GI50,[38],84.7 µM (inactive)
same,GI50,[39],27.9 µM (inactive)
same,GI50,[40],15.3 µM (inactive)
same,GI50,[41],22.5 µM (inactive)
same,GI50,[42],29.6 µM (inactive)
same,GI50,[43],34.5 µM (inactive)
same,GI50,[44],26.1 µM (inactive)
same,GI50,[45],22.1 µM (inactive)
same,GI50,[46],35.3 µM (inactive)
same,GI50,[47],33 µM (inactive)
same,GI50,[48],32 µM (inactive)
same,GI50,[49],22.2 µM (inactive)
same,GI50,[50],25.2 µM (inactive)
same,GI50,[51],33.7 µM (inactive)
same,GI50,[52],29.8 µM
same,GI50,[53],39.5 µM (inactive)
same,GI50,[54],33.2 µM (inactive)
same,GI50,[55],31.9 µM (inactive)
same,GI50,[56],85.7 µM (inactive)
same,GI50,[57],47.6 µM (inactive)
C=C(CN1CC2C[C@](C(=O)OC)(c3cc4ccccc4[nH]3)C1C(OC)C2OC)S(=O)(=O)c1ccccc1 (stereo not given in full),GI50,[1],2.29 µM (inactive)
same,GI50,[2],3.07 µM (inactive)
same,GI50,[3],1.49 µM (inactive)
same,GI50,[58],2.6 µM (inactive)
same,GI50,[4],1.87 µM (inactive)
same,GI50,[5],2.91 µM (inactive)
same,GI50,[6],2.54 µM (inactive)
same,GI50,[7],3.04 µM (inactive)
same,GI50,[8],3.35 µM (inactive)
same,GI50,[9],1.92 µM (inactive)
same,GI50,[10],2.72 µM (inactive)
same,GI50,[11],1.7 µM (inactive)
same,GI50,[12],0.43 µM (active)
same,GI50,[13],3.19 µM (inactive)
same,GI50,[14],3.71 µM (inactive)
same,GI50,[15],3.3 µM (inactive)
same,GI50,[16],3.35 µM (inactive)
same,GI50,[17],4.17 µM (inactive)
same,GI50,[18],3.27 µM (inactive)
same,GI50,[19],7.53 µM (inactive)
same,GI50,[20],0.729 µM (active)
same,GI50,[21],3.49 µM (inactive)
same,GI50,[22],2.91 µM (inactive)
same,GI50,[23],5.07 µM (inactive)
same,GI50,[24],4.43 µM (inactive)
same,GI50,[25],2.4 µM (inactive)
same,GI50,[26],2.69 µM (inactive)
same,GI50,[27],3.71 µM (inactive)
same,GI50,[28],3.81 µM (inactive)
same,GI50,[29],4.6 µM (inactive)
same,GI50,[30],2.88 µM (inactive)
same,GI50,[31],4.85 µM (inactive)
same,GI50,[32],3.13 µM (inactive)
same,GI50,[33],3.19 µM (inactive)
same,GI50,[34],3.01 µM (inactive)
same,GI50,[35],4.11 µM (inactive)
same,GI50,[36],3.14 µM (inactive)
same,GI50,[37],2.75 µM (inactive)
same,GI50,[38],4 µM (inactive)
same,GI50,[39],4.65 µM (inactive)
same,GI50,[40],2.24 µM (inactive)
same,GI50,[41],1.85 µM (inactive)
same,GI50,[42],4.8 µM (inactive)
same,GI50,[43],4.9 µM (inactive)
same,GI50,[44],0.53 µM (active)
same,GI50,[45],4.44 µM (inactive)
same,GI50,[46],3.85 µM (inactive)
same,GI50,[47],3.01 µM (inactive)
same,GI50,[59],0.245 µM (active)
same,GI50,[48],2.5 µM (inactive)
same,GI50,[49],2.54 µM (inactive)
same,GI50,[50],2.7 µM (inactive)
same,GI50,[51],10.8 µM (inactive)
same,GI50,[52],3.08 µM
same,GI50,[53],2.65 µM (inactive)
same,GI50,[55],2.88 µM (inactive)
same,GI50,[56],2.74 µM (inactive)
same,GI50,[57],4.78 µM (inactive)
